Reference: patent EP0565593B1, “REDUCING PESTICIDAL INTERACTIONS IN CROPS” (priority 1990, dated 1992)

What was measured:
Experiment in all cases: Multi-crop greenhouse test, soil-applied (Examples 65, 66; Tables 64, 65)
Assay type in all cases: in vivo
Design in all cases: inhibition: dose or concentration left out as unconfirmed
[1] = tested on: Giant foxtail (GIFT); settings: Setaria faberi; for inhibition at 18 g/ha: Herb. No. 1 0.018 Kg/Ha alone; for inhibition at 70 g/ha: Herb. No. 1 0.07 Kg/Ha alone; for inhibition at 280 g/ha: Herb. No. 1 0.28 Kg/Ha alone
Method: (§1) Tests according to this invention in various crops indicate widespread application of the invention. In Examples 62-66 below are described tests with a variety of herbicides contacted with COUNTER® 15G in the presence and absence of MON-7400 (Antidote No. 12); MON-13900 (No. 1); MON-4660 (No. 16) and flurazole (No. 16). Those tests were conducted according to Procedures IV or V described above and illustrated further in other foregoing examples. Plants used in all tests were, for crops (as abbreviated in parentheses); cotton (COTT); soybean (SOBE); CORN, grain sorghum (GRSO); wheat (WHEA) and RICE, and the weeds giant foxtail (GIFT) and velvetleaf (VELE). The data in the tables below represent averages of two replications.
(§2) In this test the crops and weeds were planted 1.3 cm deep in 13.7 cm X 27.7 cm pans containing Dupo silt loam soil. The test safeners were applied in acetone solution and COUNTER 15G as dry granules to soil cover layers and incorporated by shaking in a bag. Treated cover layers were placed on seeded pans which were transferred to greenhouse benches and subirrigated. Herbicide was applied POE six (6) days after PPI initiation and observations of plant injury made ten (10) days later; results are shown in Table 61. The herbicide used in this example was BEACON (No. 8).
(§3) In another test in the several crops and weeds used in this test series, the herbicidal component was MON-12000 (No. 1); the other components were the same. the procedure used in this test was the same as that described in Example 62, modified to use a light overhead irrigation (about 0.32 cm/day) during days 4-7 of the test. Table 64 […]

[2] = tested on: grain sorghum (GRSO); settings: Sorghum; for inhibition at 18 g/ha: Herb. No. 1 0.018 Kg/Ha alone; for inhibition at 70 g/ha: Herb. No. 1 0.07 Kg/Ha alone; for inhibition at 280 g/ha: Herb. No. 1 0.28 Kg/Ha alone
Method: as §1, §2, §3

[3] = tested on: Corn; settings: Zea mays; for inhibition at 18 g/ha: Herb. No. 1 0.018 Kg/Ha alone; for inhibition at 70 g/ha: Herb. No. 1 0.07 Kg/Ha alone; for inhibition at 280 g/ha: Herb. No. 1 0.28 Kg/Ha alone
Method: as §1, §2, §3

[4] = tested on: wheat (WHEA); settings: Triticum aestivum; for inhibition at 18 g/ha: Herb. No. 1 0.018 Kg/Ha alone; for inhibition at 70 g/ha: Herb. No. 1 0.07 Kg/Ha alone; for inhibition at 280 g/ha: Herb. No. 1 0.28 Kg/Ha alone
Method: as §1, §2, §3

[5] = tested on: soybean (SOBE); settings: Glycine max; for inhibition at 18 g/ha: Herb. No. 1 0.018 Kg/Ha alone; for inhibition at 70 g/ha: Herb. No. 1 0.07 Kg/Ha alone; for inhibition at 280 g/ha: Herb. No. 1 0.28 Kg/Ha alone
Method: as §1, §2, §3

[6] = tested on: RICE; settings: Oryza sativa; for inhibition at 18 g/ha: Herb. No. 1 0.018 Kg/Ha alone; for inhibition at 70 g/ha: Herb. No. 1 0.07 Kg/Ha alone; for inhibition at 280 g/ha: Herb. No. 1 0.28 Kg/Ha alone
Method: as §1, §2, §3

[7] = Table 64, Herb. No. 1 0.018 Kg/Ha + Biocide No. 1 8.96 Kg/Ha
[8] = Table 64, Herb. No. 1 0.07 Kg/Ha + Biocide No. 1 8.96 Kg/Ha
[9] = Table 64, Herb. No. 1 0.28 Kg/Ha + Biocide No. 1 8.96 Kg/Ha
[10] = Table 65, Herb. No. 1 0.018 Kg/Ha + Biocide No. 1 8.96 Kg/Ha
[11] = Table 65, Herb. No. 1 0.07 Kg/Ha + Biocide No. 1 8.96 Kg/Ha
[12] = Table 65, Herb. No. 1 0.28 Kg/Ha + Biocide No. 1 8.96 Kg/Ha

## COC(=O)c1c(Cl)nn(C)c1S(=O)(=O)NC(=O)Nc1nc(OC)cc(OC)n1 [Herbicide No. 1, N-[(4,6-dimethoxypyrimidin-2-yl)aminocarbonyl]-3-chloro-4-methoxycarbonyl-5-sulfonamide, reference compound]
[1]; [7]
  inhibition: 70%
[1]; Table 64
  inhibition at 18 g/ha: 0%
  inhibition at 70 g/ha: 20%
  inhibition at 280 g/ha: 40%
[1]; [8]
  inhibition: 70%
[1]; [9]
  inhibition: 85%
[1]; [10]
  inhibition: 30%
[1]; Table 65
  inhibition at 18 g/ha: 20%
  inhibition at 70 g/ha: 60%
  inhibition at 280 g/ha: 70%
[1]; [11]
  inhibition: 65%
[1]; [12]
  inhibition: 90%
[2]; [7]
  inhibition: 0%
[2]; Table 64
  inhibition at 18 g/ha: 0%
  inhibition at 70 g/ha: 0%
  inhibition at 280 g/ha: 20%
[2]; [8]
  inhibition: 15%
[2]; [9]
  inhibition: 15%
[2]; [10]
  inhibition: 15%
[2]; Table 65
  inhibition at 18 g/ha: 0%
  inhibition at 70 g/ha: 40%
  inhibition at 280 g/ha: 80%
[2]; [11]
  inhibition: 20%
[2]; [12]
  inhibition: 85%
[3]; [7]
  inhibition: 0%
[3]; Table 64
  inhibition at 18 g/ha: 0%
  inhibition at 70 g/ha: 0%
  inhibition at 280 g/ha: 10%
[3]; [8]
  inhibition: 10%
[3]; [9]
  inhibition: 60%
[3]; [10]
  inhibition: 0%
[3]; Table 65
  inhibition at 18 g/ha: 0%
  inhibition at 70 g/ha: 0%
  inhibition at 280 g/ha: 10%
[3]; [11]
  inhibition: 0%
[3]; [12]
  inhibition: 75%
[4]; [7]
  inhibition: 0%
[4]; Table 64
  inhibition at 18 g/ha: 0%
  inhibition at 70 g/ha: 0%
  inhibition at 280 g/ha: 0%
[4]; [8]
  inhibition: 0%
[4]; [9]
  inhibition: 35%
[4]; [10]
  inhibition: 0%
[4]; Table 65
  inhibition at 18 g/ha: 0%
  inhibition at 70 g/ha: 0%
  inhibition at 280 g/ha: 0%
[4]; [11]
  inhibition: 0%
[4]; [12]
  inhibition: 85%
[5]; [7]
  inhibition: 5%
[5]; Table 64
  inhibition at 18 g/ha: 15%
  inhibition at 70 g/ha: 45%
  inhibition at 280 g/ha: 70%
[5]; [8]
  inhibition: 70%
[5]; [9]
  inhibition: 75%
[5]; [10]
  inhibition: 0%
[5]; Table 65
  inhibition at 18 g/ha: 0%
  inhibition at 70 g/ha: 0%
  inhibition at 280 g/ha: 20%
[5]; [11]
  inhibition: 0%
[5]; [12]
  inhibition: 15%
[6]; [7]
  inhibition: 0%
[6]; Table 64
  inhibition at 18 g/ha: 0%
  inhibition at 70 g/ha: 0%
  inhibition at 280 g/ha: 40%
[6]; [8]
  inhibition: 10%
[6]; [9]
  inhibition: 25%
[6]; [10]
  inhibition: 0%
[6]; Table 65
  inhibition at 18 g/ha: 0%
  inhibition at 70 g/ha: 40%
  inhibition at 280 g/ha: 60%
[6]; [11]
  inhibition: 25%
[6]; [12]
  inhibition: 90%
